These results are taken from US20260297109A1, “COMPOUNDS AS SUMO ACTIVATING ENZYME INHIBITORS” (WIGEN BIOMEDICINE TECHNOLOGY (SHANGHAI) CO., LTD., priority 2022, published 2026).

The target of the first assay is T1, SAE (Homo sapiens, UniProt Q9UBT2).
T1 construct: endogenous in cells; host or cells: HCT116
T1 sequence (Q9UBT2 1-640): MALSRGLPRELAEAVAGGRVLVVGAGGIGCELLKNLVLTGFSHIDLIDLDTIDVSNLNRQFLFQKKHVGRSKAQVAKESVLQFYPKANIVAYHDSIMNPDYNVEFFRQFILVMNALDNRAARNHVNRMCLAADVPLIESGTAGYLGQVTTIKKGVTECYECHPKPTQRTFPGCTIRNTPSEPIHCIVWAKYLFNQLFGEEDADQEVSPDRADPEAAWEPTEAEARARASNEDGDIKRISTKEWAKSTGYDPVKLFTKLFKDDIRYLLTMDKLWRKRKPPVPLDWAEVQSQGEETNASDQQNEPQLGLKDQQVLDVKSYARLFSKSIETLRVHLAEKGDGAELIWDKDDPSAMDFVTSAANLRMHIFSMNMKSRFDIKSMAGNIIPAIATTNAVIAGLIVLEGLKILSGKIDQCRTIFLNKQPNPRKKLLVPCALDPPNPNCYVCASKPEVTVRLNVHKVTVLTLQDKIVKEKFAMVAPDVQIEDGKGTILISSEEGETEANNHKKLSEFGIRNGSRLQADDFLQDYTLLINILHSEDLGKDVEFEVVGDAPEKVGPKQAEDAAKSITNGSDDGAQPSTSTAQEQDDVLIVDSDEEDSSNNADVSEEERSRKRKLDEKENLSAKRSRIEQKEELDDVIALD
T1 sequence (Q9UBE0 1-346): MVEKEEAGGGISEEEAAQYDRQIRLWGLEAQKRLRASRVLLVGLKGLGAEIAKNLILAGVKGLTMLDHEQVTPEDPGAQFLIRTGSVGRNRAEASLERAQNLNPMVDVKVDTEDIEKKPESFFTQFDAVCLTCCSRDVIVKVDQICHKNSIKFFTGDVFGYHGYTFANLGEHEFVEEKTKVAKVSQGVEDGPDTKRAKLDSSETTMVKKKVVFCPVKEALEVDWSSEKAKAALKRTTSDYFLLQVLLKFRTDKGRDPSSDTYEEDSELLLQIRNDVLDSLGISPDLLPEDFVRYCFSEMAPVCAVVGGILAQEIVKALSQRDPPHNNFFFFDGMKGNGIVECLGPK
The assay is described as follows: SUMO IF: in vitro inhibitory activity assay against SAE in HCT116 cells (SUMO-2/3 immunofluorescence). It counts as cell-based. Conditions: class symbols, 6 h at 37° C. Put shortly:
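SUMO-2/3 immunofluorescence (18H8 primary 1:400, FITC secondary 1:300) was read after 6 h compound exposure of HCT116 cells at 37 °C. Inhibition rate and IC50 derive from signal relative to DMSO-treated wells.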
For the compound `NS(=O)(=O)OC[C@H]1[C@H](F)[C@@H](Nc2ncncc2C(=O)c2cc3c(s2)CSCC32NCCc3ncc(Cl)cc32)C[C@@H]1O` (stereo partly drawn) [Compound 612], the IC50 (commonly the midpoint of a concentration-inhibition curve) lay in the range of 0.05 to 0.2 µM.

Compound `Nc1sc(C(=O)c2cncnc2N[C@H]2C[C@H](O)[C@@H](COS(N)(=O)=O)[C@@H]2F)cc1C1NCCc2ccc(Cl)cc21` (stereo partly drawn) [Compound 264] gave a half-maximal inhibitory concentration (IC50) of 0.05 to 0.2 µM.

Regarding `NS(=O)(=O)OC[C@H]1[C@H](F)[C@@H](Nc2ncncc2C(=O)c2cc3c(s2)C(F)(F)CC32NCCc3ccc(F)cc32)C[C@@H]1O` (stereo partly drawn) [Compound 624], the IC50 lay in the range of 0.05 to 0.2 µM.

`CC1(C)CN[C@]2(CCCc3sc(C(=O)c4cncnc4N[C@H]4C[C@H](O)[C@@H](COS(N)(=O)=O)[C@@H]4F)cc32)c2cc(Cl)ccc21` [Compound 1028] returned an IC50 of 0.05 to 0.2 µM.

With `C#Cc1sc(C(=O)c2cncnc2N[C@H]2C[C@H](O)[C@@H](COS(N)(=O)=O)[C@@H]2F)cc1C1NCCc2ccc(Cl)cc21` (stereo partly drawn) [Compound 259], the IC50 is 0.05 to 0.2 µM.

For the compound `Cc1sc(C(=O)c2cncnc2N[C@H]2C[C@H](O)[C@@H](COS(N)(=O)=O)[C@@H]2F)cc1[C@H]1NCCc2ccc(C#N)cc21` [Compound 240], the IC50 is greater than 0.2 µM.

For `NS(=O)(=O)OC[C@H]1[C@H](F)[C@@H](Nc2ncncc2C(=O)c2cc3c(s2)CCC[C@]32NCCc3cc(F)c(F)cc32)C[C@@H]1O` [Compound 670], the half-maximal inhibitory concentration (IC50) was no more than 0.05 µM.

For `NS(=O)(=O)OC[C@H]1[C@H](F)[C@@H](Nc2ncncc2C(=O)c2cc3c(s2)CCCC32NCCc3cc(Cl)c(Cl)cc32)C[C@@H]1O` (stereo partly drawn) [Compound 112], the 50% inhibitory concentration (IC50) was 0.05 to 0.2 µM.

In turn, `Cc1ccc2c(c1)C1(CCc3sc(C(=O)c4cncnc4N[C@H]4C[C@H](O)[C@@H](COS(N)(=O)=O)[C@@H]4F)cc31)NCC2` (stereo partly drawn) [Compound 148] yielded an IC50 of 0.05 to 0.2 µM.

With `NS(=O)(=O)OC[C@H]1[C@H](F)[C@@H](Nc2ncncc2C(=O)c2cc3c(s2)CC[C@@]32OCCc3ccc(F)cc32)C[C@@H]1O` [Compound 748], the half-maximal inhibitory concentration (IC50) is greater than 0.2 µM.

`CCN1Cc2sc(C(=O)c3cncnc3N[C@H]3C[C@H](O)[C@@H](COS(N)(=O)=O)[C@@H]3F)cc2C2(C1)OCCc1ccc(F)cc12` (stereo partly drawn) [Compound 726] came in with a half-inhibitory concentration (IC50) of 0.05 to 0.2 µM.

Take `Cc1sc(C(=O)c2cncnc2N[C@H]2C[C@H](O)[C@@H](COS(N)(=O)=O)[C@@H]2F)cc1C1NCCc2ccc(C#N)cc21` (stereo partly drawn) [Compound 238]: the 50% inhibitory concentration (IC50) was greater than 0.2 µM.

Regarding `NS(=O)(=O)OC[C@H]1[C@H](F)[C@@H](Nc2ncncc2C(=O)c2cc3c(s2)CC[C@@]32OCCc3ccccc32)C[C@@H]1O` [Compound 745], the half-inhibitory concentration (IC50) is greater than 0.2 µM.

The compound `CC1CN[C@]2(C=Cc3sc(C(=O)c4cncnc4N[C@H]4C[C@H](O)[C@@H](COS(N)(=O)=O)[C@@H]4F)cc32)c2cc(Cl)ccc21` (stereo partly drawn) [Compound 1055] gave a concentration for half-maximal inhibition (IC50) of no more than 0.05 µM.

`NS(=O)(=O)OC[C@H]1[C@H](F)[C@@H](Nc2ncncc2C(=O)c2cc3c(s2)CCCC32NCC3(CC3)c3ccc(Cl)cc32)C[C@@H]1O` (stereo partly drawn) [Compound 123]: the concentration for half-maximal inhibition (IC50) was in the range of 0.05 to 0.2 µM.

The compound `NS(=O)(=O)OC[C@H]1[C@H](F)[C@@H](Nc2ncncc2C(=O)c2cc3c(s2)COC[C@@]32NCCc3c(Cl)cc(Cl)cc32)C[C@@H]1O` [Compound 565] yielded a concentration for half-maximal inhibition (IC50) greater than 0.2 µM.

Turning to `CC1=CC2(NCCc3ccc(Cl)cc32)c2cc(C(=O)c3cncnc3N[C@H]3C[C@H](O)[C@@H](COS(N)(=O)=O)[C@@H]3F)sc21` (stereo partly drawn) [Compound 324], the 50% inhibitory concentration (IC50) fell in the range of 0.05 to 0.2 µM.

The compound `COc1cc2c(cc1Cl)[C@@]1(CCc3sc(C(=O)c4cncnc4N[C@H]4C[C@H](O)[C@@H](COS(N)(=O)=O)[C@@H]4F)cc31)NCC2` [Compound 696] came in with a 50% inhibitory concentration (IC50) of 0.05 to 0.2 µM.

`Cc1sc(C(=O)c2cncnc2N[C@H]2C[C@H](O)[C@@H](COS(N)(=O)=O)[C@@H]2F)cc1[C@H]1OCCc2ccc(Cl)cc21` [Compound 989] registered an IC50 greater than 0.2 µM.

The compound `C=Cc1sc(C(=O)c2cncnc2N[C@H]2C[C@H](O)[C@@H](COS(N)(=O)=O)[C@@H]2F)cc1C1NCCc2ccc(Cl)cc21` (stereo partly drawn) [Compound 261] gave an IC50 of 0.05 to 0.2 µM.

Regarding `NS(=O)(=O)OC[C@H]1[C@H](F)[C@@H](Nc2ncncc2C(=O)c2cc3c(s2)CCC[C@@]32NCCc3ccc(Cl)nc32)C[C@@H]1O` [Compound 601], the IC50 is greater than 0.2 µM.

Take `NS(=O)(=O)OC[C@H]1[C@H](F)[C@@H](Nc2ncncc2C(=O)c2cc3c(s2)C=CCC32NCCc3ccc(Cl)cc32)C[C@@H]1O` (stereo partly drawn) [Compound 120]: the IC50 was no more than 0.05 µM.

For `Cc1sc(C(=O)c2cncnc2N[C@H]2C[C@H](O)[C@@H](COS(N)(=O)=O)[C@@H]2F)cc1[C@@H]1OCCc2ccc(Cl)cc21` [Compound 988], the half-inhibitory concentration (IC50) was 0.05 to 0.2 µM.

In turn, `CC1CN[C@]2(CCCc3sc(C(=O)c4cncnc4N[C@H]4C[C@H](O)[C@@H](COS(N)(=O)=O)[C@@H]4F)cc32)c2cc(Cl)ccc21` (stereo partly drawn) [Compound 1022] gave an IC50 of no more than 0.05 µM.

`NS(=O)(=O)OC[C@H]1[C@H](F)[C@@H](Nc2ncncc2C(=O)c2nc3c(s2)CCC[C@]32NCCc3ccc(Cl)cc32)C[C@@H]1O` [Compound 587] displayed a half-maximal inhibitory concentration (IC50) of 0.05 to 0.2 µM.

`Cc1sc(C(=O)c2cncnc2N[C@H]2C[C@H](O)[C@@H](COS(N)(=O)=O)[C@@H]2F)cc1C1NCc2ccc(Cl)cc21` (stereo partly drawn) [Compound 257] yielded an IC50 greater than 0.2 µM.

Compound `Cc1sc(C(=O)c2cncnc2N[C@H]2C[C@H](O)[C@@H](COS(N)(=O)=O)[C@@H]2F)cc1C1(C)NCCc2ccc(Cl)cc21` (stereo partly drawn) [Compound 270] returned a 50% inhibitory concentration (IC50) of 0.05 to 0.2 µM.

`NS(=O)(=O)OC[C@H]1[C@H](F)[C@@H](Nc2ncncc2C(=O)c2cc3c(s2)COC[C@]32NCCc3c(Cl)cc(Cl)cc32)C[C@@H]1O` [Compound 566] gave an IC50 of 0.05 to 0.2 µM.

The compound `Cc1sc(C(=O)c2cncnc2N[C@H]2C[C@H](O)[C@@H](COS(N)(=O)=O)[C@@H]2F)cc1[C@@H]1NCCc2ccccc21` [Compound 230] returned an IC50 of 0.05 to 0.2 µM.

In the case of `NS(=O)(=O)OC[C@H]1[C@H](F)[C@@H](Nc2ncncc2C(=O)c2cc3c(s2)COC[C@@]32NCCc3c(F)cc(Cl)cc32)C[C@@H]1O` [Compound 574], the IC50 is greater than 0.2 µM.

As to `Cc1sc(C(=O)c2cncnc2N[C@H]2C[C@H](O)[C@@H](COS(N)(=O)=O)[C@@H]2F)cc1C1NCC2(CC2)c2ccc(Cl)cc21` (stereo partly drawn) [Compound 265], the 50% inhibitory concentration (IC50) was 0.05 to 0.2 µM.

In turn, `NS(=O)(=O)OC[C@H]1[C@H](F)[C@@H](Nc2ncncc2C(=O)c2cc3c(s2)CSC[C@]32NCCc3ccc(Cl)nc32)C[C@@H]1O` [Compound 611] registered an IC50 of no more than 0.05 µM.

Regarding `NS(=O)(=O)OC[C@H]1[C@H](F)[C@@H](Nc2ncncc2C(=O)c2cc3c(s2)CCC[C@@]32OCCc3ccc(Cl)cc32)C[C@@H]1O` [Compound 685], the IC50 was greater than 0.2 µM.

In turn, `NS(=O)(=O)OC[C@H]1[C@H](F)[C@@H](Nc2ncncc2C(=O)c2cc3c(s2)C(F)(F)C[C@]32NCCc3ccc(F)cc32)C[C@@H]1O` [Compound 626] came in with a half-inhibitory concentration (IC50) of 0.05 to 0.2 µM.

The same assay, now with this note: numeric values, 6 h at 37° C.
The compound `NS(=O)(=O)OC[C@H]1[C@H](F)[C@@H](Nc2ncncc2C(=O)c2cc3c(s2)CSC[C@@]32NCCc3ccc(Cl)cc32)C[C@@H]1O` [Compound 301] yielded an IC50 greater than 1 µM.

`NS(=O)(=O)OC[C@H]1[C@H](F)[C@@H](Nc2ncncc2C(=O)c2cc3c(s2)CN(CC(F)(F)F)C[C@@]32NCCc3ccc(Cl)cc32)C[C@@H]1O` [Compound 652] showed an IC50 greater than 1 µM.

For `Cc1sc(C(=O)c2cncnc2N[C@H]2C[C@H](O)[C@@H](COS(N)(=O)=O)[C@@H]2F)cc1[C@H]1NCCc2ccc(F)cc21` [Compound 237], the 50% inhibitory concentration (IC50) is greater than 1 µM.

`NS(=O)(=O)OC[C@H]1[C@H](F)[C@@H](Nc2ncncc2C(=O)c2cc3c(s2)CSC[C@]32NCCc3ccc(Cl)cc32)C[C@@H]1O` [Compound 302] displayed an IC50 of 0.0215 µM.

As for `[2H]C1([2H])Cc2ccc(Cl)cc2[C@@]2(CCCc3sc(C(=O)c4cncnc4N[C@H]4C[C@H](O)[C@@H](COS(N)(=O)=O)[C@@H]4F)cc32)N1` [Compound 662], it took 0.0235 µM to reach half-maximal inhibition (IC50).

Regarding `C#CCN1Cc2sc(C(=O)c3cncnc3N[C@H]3C[C@H](O)[C@@H](COS(N)(=O)=O)[C@@H]3F)cc2[C@]2(C1)NCCc1ccc(Cl)cc12` [Compound 659], the half-inhibitory concentration (IC50) worked out at 0.0203 µM.

For `NS(=O)(=O)OC[C@H]1[C@H](F)[C@@H](Nc2ncncc2C(=O)c2cc3c(s2)COC[C@]32NCCc3ccc(Cl)cc32)C[C@@H]1O` [Compound 105], the IC50 was found to be 0.0793 µM.

With `NS(=O)(=O)OC[C@H]1[C@H](F)[C@@H](Nc2ncncc2C(=O)c2cc3c(s2)CN(C2CC2)C[C@]32NCCc3ccc(Cl)cc32)C[C@@H]1O` [Compound 581], 0.0238 µM corresponded to half-maximal inhibition (IC50).
